Assay results as given in patent publication US20210255193A1, “LYSINE REACTIVE PROBES AND USES THEREOF” (The Scripps Research Institute, priority 2017, published 2021).

Columns and labels:
Test in all cases: competitive isoTOP-ABPP
Assay type in all cases: binding
[1] = target: T1, TSTA3 GDP-L-fucose synthase (Homo sapiens, UniProt Q13630); conditions: 50 uM, 231 sol, in vitro; for R value (DMSO/fragment) for probe 1 labeling: Q13630_K108
T1 construct: isoTOP-ABPP experiments performed in cell lysates (in vitro); endogenous in cells; host or cells: soluble proteome of human cancer cell lines (MDA-MB-231, Ramos, Jurkat)
How it was run: (§1)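 Here, isoTOP-ABPP measures loss of STP-alkyne labeling at individual lysines after fragment exposure in lysate. Activated esters are dosed at 50 μM, guanidinylating agents at 100 μM; the probe follows at 0.1 mM for 1 h. R ≥4 marks a liganded lysine.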

SPAST Spastin = target: T2, SPAST Spastin (Homo sapiens, UniProt Q9UBP0); conditions: 50 uM, 231 sol, in vitro; for R value (DMSO/fragment) for probe 1 labeling: Q9UBP0_K180
T2 construct: endogenous in cells; host or cells: MDA-MB-231 lysate
T2 sequence (Q9UBP0 1-616): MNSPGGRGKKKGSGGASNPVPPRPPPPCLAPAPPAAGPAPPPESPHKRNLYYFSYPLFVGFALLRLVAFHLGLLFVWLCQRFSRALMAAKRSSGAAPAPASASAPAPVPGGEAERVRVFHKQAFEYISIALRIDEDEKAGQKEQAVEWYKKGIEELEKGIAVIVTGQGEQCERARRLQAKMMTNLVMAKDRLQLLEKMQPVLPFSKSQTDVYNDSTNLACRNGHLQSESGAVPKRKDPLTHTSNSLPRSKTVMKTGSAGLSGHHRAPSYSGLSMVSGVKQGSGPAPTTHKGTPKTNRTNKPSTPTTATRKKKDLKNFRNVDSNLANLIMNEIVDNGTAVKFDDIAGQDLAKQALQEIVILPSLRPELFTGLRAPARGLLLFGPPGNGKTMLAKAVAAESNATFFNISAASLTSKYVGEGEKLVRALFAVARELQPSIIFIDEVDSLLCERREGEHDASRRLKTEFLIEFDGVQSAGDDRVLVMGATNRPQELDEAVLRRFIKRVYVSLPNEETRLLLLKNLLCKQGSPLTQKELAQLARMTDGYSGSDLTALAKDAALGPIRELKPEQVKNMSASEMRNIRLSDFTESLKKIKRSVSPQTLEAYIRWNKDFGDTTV
How it was run: as §1

FAM136A Protein FAM136A = target: T3, FAM136A Protein FAM136A (Homo sapiens, UniProt Q96C01); conditions: 50 uM, 231 sol, in vitro; for R value (DMSO/fragment) for probe 1 labeling: Q96C01_K99
T3 construct: isoTOP-ABPP experiments performed in cell lysates (in vitro); endogenous in cells; host or cells: soluble proteome of human cancer cell lines (MDA-MB-231; Ramos and Jurkat also prepared)
How it was run: as §1

[2] = target: T4, FH Fumarate hydratase, mitochondrial (Homo sapiens, UniProt P07954); conditions: 50 uM, 231 sol, in vitro; for R value (DMSO/fragment) for probe 1 labeling: P07954_K311
T4 construct: isoTOP-ABPP experiments performed in cell lysates (in vitro); endogenous in cells; host or cells: MDA-MB-231 soluble lysate
T4 sequence (P07954 45-510): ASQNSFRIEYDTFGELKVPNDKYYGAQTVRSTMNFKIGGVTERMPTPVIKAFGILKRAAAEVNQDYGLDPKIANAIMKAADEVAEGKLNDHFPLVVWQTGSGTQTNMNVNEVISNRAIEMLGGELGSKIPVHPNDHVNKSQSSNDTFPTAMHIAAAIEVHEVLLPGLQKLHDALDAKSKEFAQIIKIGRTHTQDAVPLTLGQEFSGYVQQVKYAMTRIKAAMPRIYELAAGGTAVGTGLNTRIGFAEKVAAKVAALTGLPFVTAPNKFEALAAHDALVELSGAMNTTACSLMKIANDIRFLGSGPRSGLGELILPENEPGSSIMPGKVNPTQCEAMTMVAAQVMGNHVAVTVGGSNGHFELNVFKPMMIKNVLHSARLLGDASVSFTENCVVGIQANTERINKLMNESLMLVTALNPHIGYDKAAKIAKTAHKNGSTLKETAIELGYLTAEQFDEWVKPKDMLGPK
How it was run: as §1

T1 sequence (Q13630 whole entry, the tested form may be a part): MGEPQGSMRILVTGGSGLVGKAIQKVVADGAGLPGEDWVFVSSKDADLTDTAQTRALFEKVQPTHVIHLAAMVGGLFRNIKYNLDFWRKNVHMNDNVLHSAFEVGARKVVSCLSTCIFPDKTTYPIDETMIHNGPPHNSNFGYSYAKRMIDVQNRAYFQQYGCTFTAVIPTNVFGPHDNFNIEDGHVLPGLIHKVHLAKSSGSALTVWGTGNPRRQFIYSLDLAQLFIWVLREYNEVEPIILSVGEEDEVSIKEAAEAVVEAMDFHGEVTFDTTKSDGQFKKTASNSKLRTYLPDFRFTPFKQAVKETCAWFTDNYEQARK
T3 sequence (Q96C01 whole entry, the tested form may be a part): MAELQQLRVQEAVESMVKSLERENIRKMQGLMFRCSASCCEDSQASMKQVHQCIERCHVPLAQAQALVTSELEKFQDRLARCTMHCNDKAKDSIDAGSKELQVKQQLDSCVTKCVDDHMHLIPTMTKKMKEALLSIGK

R value (DMSO/fragment) for probe 1 labeling [1] | R value (DMSO/fragment) for probe 1 labeling (SPAST Spastin) | isoTOP-ABPP reactivity ratio at lysine Q13630_K108 [1] | isoTOP-ABPP reactivity ratio at lysine Q9UBP0_K180 (SPAST Spastin) | SMILES | other results
0.8 | 1.3 |  |  | O=C(CCc1cn(-c2ccccc2)nc1-c1ccccc1)Oc1c(F)c(F)c(F)c(F)c1F [fragment 19, Pentafluorophenyl 3-(1,3-diphenyl-1H-pyrazol-4-yl)propanoate] | 
 | 1.2 |  |  | O=C(Oc1c(F)c(F)c(F)c(F)c1F)C(c1ccccc1)c1ccccc1 [fragment 20, Pentafluorophenyl 2,2-diphenylacetate] | R value (DMSO/fragment) for probe 1 labeling (FAM136A Protein FAM136A): 0.9; R value (DMSO/fragment) for probe 1 labeling [2]: 1.2
1.0 | 1.8 |  |  | O=C(Oc1c(F)c(F)c(F)c(F)c1F)c1cc(C(F)(F)F)cc(C(F)(F)F)c1 [fragment 21, Pentafluorophenyl 3,5-bis(trifluoromethyl)benzoate] | R value (DMSO/fragment) for probe 1 labeling (FAM136A Protein FAM136A): 1.1; R value (DMSO/fragment) for probe 1 labeling [2]: 1.3
1.1 | 1.0 |  |  | Cn1cc(CC(=O)Oc2c(F)c(F)c(F)c(F)c2F)c2ccccc21 [fragment 22, Pentafluorophenyl 2-(1-methyl-1H-indol-3-yl)acetate] | 
1.0 |  |  |  | COc1cc(CCC(=O)Oc2c(F)c(F)c(F)c(F)c2F)cc(OC)c1OC [fragment 23, Pentafluorophenyl 3-(3,4,5-trimethoxyphenyl)propanoate] | R value (DMSO/fragment) for probe 1 labeling [2]: 2.6
 |  | 0.6 | 1.1 | O=C(Oc1c(F)c(F)c(F)c(F)c1F)C1CCN(C(=O)OCc2ccccc2)CC1 [fragment 24, 1-Benzyl 4-(pentafluorophenyl) piperidine-1,4-dicarboxylate] | 
 |  |  | 1.2 | O=C(Oc1c(F)c(F)c(F)c(F)c1F)c1ccc2ccccc2n1 [fragment 25, Pentafluorophenyl quinoline-2-carboxylate] | 
 |  | 1.4 |  | O=C(CCc1coc2cc(F)ccc2c1=O)Oc1c(F)c(F)c(F)c(F)c1F [fragment 26, Pentafluorophenyl 3-(7-fluoro-4-oxo-4H-chromen-3-yl)propanoate] | isoTOP-ABPP reactivity ratio at lysine Q96C01_K99 (FAM136A Protein FAM136A): 0.9; isoTOP-ABPP reactivity ratio at lysine P07954_K311 [2]: 2.4
 |  | 4.6 | 2.1 | O=C(CN1C(=O)c2ccccc2C1=O)Oc1c(F)c(F)c(F)c(F)c1F [fragment 27, Pentafluorophenyl 2-(1,3-dioxoisoindolin-2-yl)acetate] | 
 |  | 1.0 | 1.0 | CCn1cc(C(=O)Oc2c(F)c(F)c(F)c(F)c2F)c(=O)c2ccc(C)nc21 [fragment 28, Pentafluorophenyl 1-ethyl-7-methyl-4-oxo-1,4-dihydro-1,8-naphthyridine-3-carboxylate] | 
 |  |  |  | O=C(Oc1ccc([N+](=O)[O-])cc1[N+](=O)[O-])C(c1ccccc1)c1ccccc1 [fragment 30, 2,4-Dinitrophenyl 2,2-diphenylacetate] | isoTOP-ABPP reactivity ratio at lysine Q96C01_K99 (FAM136A Protein FAM136A): 0.8; isoTOP-ABPP reactivity ratio at lysine P07954_K311 [2]: 5.2

SMILES | R value (DMSO/fragment) for probe 1 labeling [1] | R value (DMSO/fragment) for probe 1 labeling (SPAST Spastin) | isoTOP-ABPP reactivity ratio at lysine Q13630_K108 [1] | isoTOP-ABPP reactivity ratio at lysine Q9UBP0_K180 (SPAST Spastin) | other results
O=C(CCc1cn(-c2ccccc2)nc1-c1ccccc1)Oc1ccc([N+](=O)[O-])cc1[N+](=O)[O-] [fragment 29, 2,4-Dinitrophenyl 3-(1,3-diphenyl-1H-pyrazol-4-yl)propanoate] |  |  | 1.1 | 1.2 | isoTOP-ABPP reactivity ratio at lysine Q96C01_K99 (FAM136A Protein FAM136A): 0.8
O=C(Oc1ccc([N+](=O)[O-])cc1[N+](=O)[O-])c1cc(C(F)(F)F)cc(C(F)(F)F)c1 [fragment 31, 2,4-Dinitrophenyl 3,5-bis(trifluoromethyl)benzoate] |  |  |  | 1.1 | isoTOP-ABPP reactivity ratio at lysine P07954_K311 [2]: 1.4
